This note sets out measurements from patent US20260174863A1, “ISOMERICALLY PURE BETA-CYCLODEXTRIN DERIVATIVES AND USES THEREOF” (Beren Therapeutics P.B.C., priority 2023, published 2026).

The subject of data set [1] is differentiated human THP-1 monocytes. Briefly: CEC - Cholesterol Efflux Assay (abcam ab196985). Format: cell-based. The settings on record: 4 h, reference standard = non-isomerically pure hydroxypropyl beta-cyclodextrin. On the procedure: Cholesterol Efflux from differentiated human THP-1 monocytes was assessed according to the manufacturer's protocol (abcam, ab196985). Briefly, THP-1 monocytes were differentiated for 48 h in presence of 100 nM phorbol 12-myristate-13-acetate (PMA) in RPMI 1640 growth medium (10% FCS, 1% penicillin/streptomycin) in a humidified incubator (37° C., 5% CO2). Differentiated THP-1 macrophage-like cells were harvested, washed with PBS, resuspended in growth medium, seeded at 1×10^5 cells into 96-well plates, and allowed to adhere for 6h. Cells were washed with serum-free RPMI media, and labelled with 100 μL of fluorescent cholesterol labelling medium (50 uL Labeling Reagent+50 uL serum-free RPMI) for 1 h protected from light. Labeling medium was removed and replaced with 100 μL, 37° C. pre-warmed equilibration medium (50 uL Equilibration Buffer+[…] Reagent A +10 μL/mL Reagent B+50 uL serum-free RPMI) and incubated for 16±1 h in an incubator (37° C., 5% CO2). Equilibration medium was removed, and cells were washed with RPMI (w/o phenol red, w/o serum). Serum cholesterol acceptor was prepared by mixing 2 parts of Serum Treatment Reagent with 5 parts of human serum, incubated on ice for 20 minutes. The mix was centrifuged at 9,000×g for 10 minutes at 4° C., and supernatants were stored on ice until use. THP-1 cells were incubated for 4 h with 100 uL RPMI media (w/o phenol red, w/o serum), spiked with 10 uL of compound (10× stock in PBS) and 2 uL serum acceptor (2%), or RPMI media spiked with 10 uL PBS and 2 uL serum acceptor (negative control). Following incubation, plates were centrifuged and whole supernatants were transferred to an opaque 96-well plate. Remaining cells were lysed by adding 100 μL of Cell Lysis Buffer and shaking at 500 rpm for 25 minutes protected from light. Cell lysate was resuspended and transferred into an opaque 96-well. Plates containing supernatants or cell lysates were measured in a plate reader at 485 nm (excitation) and 523 nm (emission). Percent (%) cholesterol efflux was measured as RFU supernatant/(RFU supernatant +RFU cell lysate)×100%.
The cholesterol efflux from cells treated with compounds of the disclosure at concentrations of 0.1 mM, 0.3 mM and 1 mM, relative to cholesterol efflux from cells treated with a reference standard, are summarized in Table 1. In the table, A denotes compounds with a CEC of >126% of that of the reference standard and B denotes compounds with a CEC of 106% to 125% of that of the reference standard; 0 denotes compounds with a CEC of 96%-105% of that of the reference standard; and—denotes compounds with a CEC of 75%-95% of that of the reference standard. The reference standard is a non-isomerically pure hydroxypropyl beta-cyclodextrin.

For data set [2] the test system is unchanged. Briefly: Cytotoxicity assay, lactate dehydrogenase (LDH) release (CytoTox 96, Promega G1780). The settings on record: samples from CEC assay, reference standard = non-isomerically pure hydroxypropyl beta-cyclodextrin. It counts as cell-based. On the procedure:
Cytotoxicity was measured using a lactate dehydrogenase (LDH) assay, according to the manufacturer's protocol (CytoTox 96® Non-Radioactive Cytotoxicity Assay, Promega, G1780). Supernatants and cell lysates from CEC assay served as samples. Briefly, 50 uL of supernatant and cell lysates were transferred into separate transparent 96-well plates. 50 uL CytoTox 96© Reagent was added to the wells, mixed by pipetting, and incubated for 10 minutes protected from light. 50 μL of Stop Solution was added, mixed by pipetting, and absorbance (OD) was measured at 490 nm in a plate reader. Phenol red-free RPMI with 10% […] and Cell Lysis Buffer (abcam, ab196985) served as background controls. Percent (%) cytotoxicity was measured as OD supernatant/(OD supernatant+OD cell lysate)×100%.
Lactate dehydrogenase (LDH) released from cells treated with compounds of the disclosure at concentrations of 0.1 mM, 0.3 mM and 1 mM, relative to LDH) released from cells treated with a reference standard, are summarized in Table 2. In the table, A denotes compounds releasing LDH in an amount of <70% of that of the reference standard; B denotes compounds releasing LDH in an amount of 71-95% of that of the reference standard; 0 denotes compounds releasing LDH in an amount of 96%-105% of that of the reference standard; +denotes compounds releasing LDH in an amount of 106%-120% of that of the reference standard; and ++denotes compounds releasing LDH in an amount of >120% of that of the reference standard The reference standard is a non-isomerically pure hydroxypropyl beta-cyclodextrin.

Molecules are shown by their SMILES.

With `CC(O)CO[C@@H]1[C@@H](O)[C@H]2O[C@H]3[C@H](OCC(C)O)[C@@H](O)[C@@H](O[C@H]4[C@H](OCC(C)O)[C@@H](O)[C@@H](O[C@H]5[C@H](OCC(C)O)[C@@H](O)[C@@H](O[C@H]6[C@H](OCC(C)O)[C@@H](O)[C@@H](O[C@H]7[C@H](OCC(C)O)[C@@H](O)[C@@H](O[C@H]8[C@H](OCC(C)O)[C@@H](O)[C@@H](O[C@@H]1[C@@H](CO)O2)O[C@@H]8CO)O[C@@H]7CO)O[C@@H]6CO)O[C@@H]5CO)O[C@@H]4CO)O[C@@H]3CO` (stereo partly drawn) [Compound 4], the “Cholesterol efflux from cells treated with compounds, relative to reference standard” value in data set [1] (0.1 mM), in data set [1] (0.3 mM) and in data set [1] (1 mM) was “− (—denotes compounds with a CEC of 75%-95% of that of the reference standard)” each time. For the same compound, the “Release of lactate dehydrogenase from cells treated with compounds, relative to reference standard” value in data set [2] (0.1 mM), in data set [2] (0.3 mM) and in data set [2] (1 mM) was “++ (++denotes compounds releasing LDH in an amount of >120% of that of the reference standard)” throughout.
